Results: patent US20240139197A1, “INHIBITION OF KDM5A FOR PROMOTING ANTIGEN PRESENTATION, INCREASING CD8+ T CELL INFILTRATION AND BOOSTING ANTI-TUMOR IMMUNE RESPONSE” (The Wistar Institute of Anatomy and Biology, priority 2022, published 2024)

How the values were obtained:
HGSOC cell lines = test: dose response by colony formation assay in HGSOC/EOC cell lines; format: cell-based, human; details: panel of EOC cell lines, regardless of KDM5A expression status, dose response curve
Source text: FIG. 5A-FIG. 5G show KDM5A is overexpressed in HGSOC and its expression negatively correlates with infiltration of CD8+ T cells. (FIG. 5A) Correlation between KDM5A and CD8A expression in the TCGA HGSOC dataset. (FIG. 5B) Correlation between KDM5A and CD8A expression in a published laser capture and microdissected (LCM) HGSOC dataset. (FIG. 5C) Correlation between KDM5A and PRFI expression in the TCGA HGSOC dataset. (FIG. 5D) Representative images of KDM5A IHC staining of HGSOC in a tumor microarray. (FIG. 5E) Relative expression of KDM5A in LCM of HGSOC and normal human ovarian surface epithelial cells (HOSE) or fallopian tube epithelial cells (FTE). (FIG. 5F) Expression of KDM5A and a loading control β-actin in the indicated FTE cells and HGSOC cell lines determined by immunoblot. (FIG. 5G) Dose response curves to KDM5A inhibitor CPI-455 determined by colony formation assay in the indicated HGSOC cell lines. Data represent mean±SEM; P values were calculated by using a two-tailed Student t test except in FIG. 5A and FIG. 5B by using Pearson r analysis.
Insulin/Transferrin/Selenium (Invitrogen, Cat #51300), […] Hydrocortisone (Sigma, Cat #H0135), 10 ng/ml Murine epidermal growth factor (Sigma, Cat #E4127) and 1% penicillin/streptomycin at 37° C.with 5% CO2. […]

HGS2 cells = test: cell viability by colony formation assay, HGS2; format: cell-based, mouse; details: HGS2, 10 μM, 8 days
Description: FIG. 6A-FIG. 6K show KDM5A inhibition promotes anti-tumor immune response in vivo. (FIG. 6A) Expression of H3K4me3, Kdm5a and a loading control b-actin in an independent second doxycycline-inducible shKdm5a ID8 clone treated with or without 2 μg/mL of doxycycline. (FIG. 6B) Same as FIG. 6A, but doxycycline-inducible shKdm5a ID8 cells were plated into 24 well plates and treated with 2 μg/mL of doxycycline the same day. Cells were incubated for 8 days. Relative cell viability was determined by colony formation assay. (FIG. 6C) Expression of H3K4me3, Kdm5a and a loading control b-actin in HGS2 cells treated 10 μM of CPI-455 or vehicle controls for 72 hours. […] Relative cell viability was determined by colony formation assay. (FIG. 6E-FIG. 6F) Bioluminescence signal was measured by IVIS system in indicated animal groups in the immunocompetent C57BL/6 mouse model once a week (FIG. 6E) and the survival of the indicated groups was determined by Kaplan-Meier survival curves (FIG. 6F) (n=5 mice per group). […] Ascites volumes produced from the indicated groups were quantified (FIG. 6H). n=5 mice per group. […] (FIG. 6J-FIG. 6K) Bioluminescence signal was measured by IVIS system in indicated animal groups in the immunocompromised NSG mouse model once a week (FIG. 6J), or examined for Kaplan-Meier survival curves for the indicated groups (FIG. 6K). […]

Substance: CPI-455
- cell viability in vitro (HGSOC cell lines): did not affect cell viability
- cell viability (HGS2 cells): did not affect cell viability
